This experiment relates to CD2F1 mice, L1210 leukemia ip, survival T/C. Put plainly: NCI In Vivo Anticancer Drug Screen. Data for tumor model L1210 Leukemia (intraperitoneal) in CD2F1 (CDF1) mice. The following applies: endpoint: mean survival time, higher = longer survival. The essentials: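 Each value reflects a quotient of treated over vehicle control outcomes in mice with a transplanted tumor.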

Values joined by “and” are separate entries in the source; they are usually repeats but may differ in a detail not shown here. Equal values may be shown once. Inconclusive results and toxic doses are left out.

Turning to `CS(=O)(=O)OCCC(=O)N1CCN(C(=O)CCOS(C)(=O)=O)CC1`, the T/C is 97 % of control (dose: 4.0 mg/kg/injection, schedule: Q03HX024 (oral), vehicle: saline); 120 % of control (dose: 8.0 mg/kg/injection, schedule: Q03HX008 (ip), vehicle: saline); 93 % of control (dose: 8.0 mg/kg/injection, schedule: Q03HX008 (oral), vehicle: saline); 94 % of control (dose: 8.0 mg/kg/injection, schedule: Q03HX016 (oral), vehicle: saline); 100 % of control (dose: 8.0 mg/kg/injection, schedule: Q03HX024 (oral), vehicle: saline); 101 % of control (dose: 16.0 mg/kg/injection, schedule: Q01DX009 (oral), vehicle: saline). For the same molecule, the T/C runs as follows: (dose: 16.0 mg/kg/injection, schedule: Q03HX008 (oral), vehicle: saline) 96 % of control; (dose: 16.0 mg/kg/injection, schedule: Q03HX016 (ip), vehicle: saline) 169 % of control; (dose: 16.0 mg/kg/injection, schedule: Q03HX016 (oral), vehicle: saline) 100 % of control; (dose: 16.0 mg/kg/injection, schedule: Q03HX024 (ip), vehicle: saline) 200 % of control; (dose: 16.0 mg/kg/injection, schedule: Q03HX024 (oral), vehicle: saline) 109 % of control; (dose: 32.0 mg/kg/injection, schedule: Q01DX009 (ip), vehicle: saline) 165 % of control. Besides, the T/C (dose: 32.0 mg/kg/injection, schedule: Q01DX009 (oral), vehicle: saline) is 103 % of control; the T/C (dose: 32.0 mg/kg/injection, schedule: Q03HX008 (ip), vehicle: saline) was 182 % of control; the T/C (dose: 32.0 mg/kg/injection, schedule: Q03HX008 (oral), vehicle: saline) was 102 % of control; the T/C (dose: 32.0 mg/kg/injection, schedule: Q03HX016 (ip), vehicle: saline) is 207 % of control; the T/C (dose: 32.0 mg/kg/injection, schedule: Q03HX016 (oral), vehicle: saline) was 95 % of control; the T/C (dose: 32.0 mg/kg/injection, schedule: Q03HX024 (ip), vehicle: saline) was 168 % of control. Moreover, the T/C reads like this: (dose: 32.0 mg/kg/injection, schedule: Q03HX024 (oral), vehicle: saline) 114 % of control; (dose: 32.0 mg/kg/injection, schedule: Q04DX003 (oral), vehicle: saline) 100 % of control; (dose: 64.0 mg/kg/injection, schedule: Q01DX001 (oral), vehicle: saline) 98 % of control; (dose: 64.0 mg/kg/injection, schedule: Q01DX009 (ip), vehicle: saline) 208 % of control; (dose: 64.0 mg/kg/injection, schedule: Q01DX009 (oral), vehicle: saline) 105 % of control; (dose: 64.0 mg/kg/injection, schedule: Q03HX008 (oral), vehicle: saline) 106 % of control. The T/C was 103 % of control (dose: 64.0 mg/kg/injection, schedule: Q03HX016 (ip), vehicle: saline); 97 % of control (dose: 64.0 mg/kg/injection, schedule: Q03HX016 (oral), vehicle: saline); 105 % of control (dose: 64.0 mg/kg/injection, schedule: Q04DX003 (oral), vehicle: saline); 92 % of control (dose: 64.0 mg/kg/injection, schedule: Q08DX002 (oral), vehicle: saline); 98 % of control (dose: 128.0 mg/kg/injection, schedule: Q01DX001 (oral), vehicle: saline); 124 % of control (dose: 128.0 mg/kg/injection, schedule: Q01DX009 (ip), vehicle: saline). Also, the T/C is, setting by setting: (dose: 128.0 mg/kg/injection, schedule: Q01DX009 (oral), vehicle: saline) 110 % of control; (dose: 128.0 mg/kg/injection, schedule: Q04DX003 (ip), vehicle: saline) 193 % of control; (dose: 128.0 mg/kg/injection, schedule: Q04DX003 (oral), vehicle: saline) 95 % of control; (dose: 128.0 mg/kg/injection, schedule: Q08DX002 (ip), vehicle: saline) 194 % of control; (dose: 128.0 mg/kg/injection, schedule: Q08DX002 (oral), vehicle: saline) 90 % of control; (dose: 256.0 mg/kg/injection, schedule: Q01DX001 (ip), vehicle: saline) 166 % of control. Besides, the T/C by setting is: (dose: 256.0 mg/kg/injection, schedule: Q01DX001 (oral), vehicle: saline) 94 % of control; (dose: 256.0 mg/kg/injection, schedule: Q01DX009 (oral), vehicle: saline) 110 % of control; (dose: 256.0 mg/kg/injection, schedule: Q04DX003 (ip), vehicle: saline) 181 % of control; (dose: 256.0 mg/kg/injection, schedule: Q04DX003 (oral), vehicle: saline) 100 % of control; (dose: 256.0 mg/kg/injection, schedule: Q08DX002 (ip), vehicle: saline) 228 % of control; (dose: 256.0 mg/kg/injection, schedule: Q08DX002 (oral), vehicle: saline) 96 % of control. The T/C is 89 % of control (dose: 512.0 mg/kg/injection, schedule: Q01DX001 (ip), vehicle: saline); 96 % of control (dose: 512.0 mg/kg/injection, schedule: Q01DX001 (oral), vehicle: saline); 103 % of control (dose: 512.0 mg/kg/injection, schedule: Q04DX003 (ip), vehicle: saline); 94 % of control (dose: 512.0 mg/kg/injection, schedule: Q08DX002 (oral), vehicle: saline).

`Nc1nc(-c2ccccc2)nc2c1=NC(c1ccccc1)N=2` (stereo not drawn): the T/C was 96 % of control (dose: 12.5 mg/kg/injection, schedule: Q01DX005 (ip), vehicle: other); 98 % of control (dose: 25.0 mg/kg/injection, schedule: Q01DX005 (ip), vehicle: other); 98 % of control (dose: 50.0 mg/kg/injection, schedule: Q01DX005 (ip), vehicle: other); 93 % of control (dose: 100.0 mg/kg/injection, schedule: Q01DX005 (ip), vehicle: other); 93 % of control (dose: 200.0 mg/kg/injection, schedule: Q01DX005 (ip), vehicle: other).

In the case of `Oc1c(CN2CCOCC2)cc(CN2CCOCC2)cc1CN1CCOCC1`, the T/C reads like this: (dose: 100.0 mg/kg/injection, schedule: Q01DX009 (ip), vehicle: saline with Tween-80) 100 % of control; (dose: 200.0 mg/kg/injection, schedule: Q01DX009 (ip), vehicle: saline with Tween-80) 95 % of control; (dose: 400.0 mg/kg/injection, schedule: Q01DX009 (ip), vehicle: saline with Tween-80) 100 % of control.

As to `NC(CSS(=O)(=O)CC(N)C(=O)O)C(=O)O` (stereo not drawn), the T/C (dose: 100.0 mg/kg/injection, schedule: Q04DX003 (ip), vehicle: saline) is 103 % of control; the T/C (dose: 200.0 mg/kg/injection, schedule: Q04DX003 (ip), vehicle: saline) was 109 % of control; the T/C (dose: 400.0 mg/kg/injection, schedule: Q04DX003 (ip), vehicle: saline) is 103 % of control.

For the molecule `CC(=O)CC1C(CC(=O)O)C1(C)C` (stereo not drawn), the T/C by setting is: (dose: 100.0 mg/kg/injection, schedule: Q01DX001 (ip), vehicle: alcohol) 100 % of control; (dose: 200.0 mg/kg/injection, schedule: Q01DX001 (ip), vehicle: alcohol) 102 % of control; (dose: 400.0 mg/kg/injection, schedule: Q01DX001 (ip), vehicle: alcohol) 102 % of control.

As to `C=CCOc1c(C)cc(C(C)(C)c2cc(C)c(OCC=C)c(C)c2)cc1C`, the T/C (dose: 25.0 mg/kg/injection, schedule: Q01DX001 (ip), vehicle: other) is 104 % of control; the T/C (dose: 50.0 mg/kg/injection, schedule: Q01DX001 (ip), vehicle: other) is 103 % of control; the T/C (dose: 100.0 mg/kg/injection, schedule: Q01DX001 (ip), vehicle: other) is 94 % of control and 97 % of control; the T/C (dose: 400.0 mg/kg/injection, schedule: Q01DX001 (ip), vehicle: other) was 96 % of control.

Turning to `CCC[CH2][Sn]1([CH2]CCC)[O]c2ccccc2[O]1`, the T/C was 100 % of control (dose: 1.56 mg/kg/injection, schedule: Q04DX002 (ip), vehicle: saline with Tween-80); 96 % of control (dose: 3.12 mg/kg/injection, schedule: Q04DX002 (ip), vehicle: saline with Tween-80); 98 % of control (dose: 6.25 mg/kg/injection, schedule: Q04DX002 (ip), vehicle: saline with Tween-80); 113 % of control (dose: 12.5 mg/kg/injection, schedule: Q04DX002 (ip), vehicle: saline with Tween-80).

As to `CC(=O)C(CCN(C)C)(c1ccccc1)c1ccccc1`, the T/C is 102 % of control (dose: 75.0 mg/kg/injection, schedule: Q01DX001 (ip), vehicle: saline) and 91 % of control (dose: 150.0 mg/kg/injection, schedule: Q01DX001 (ip), vehicle: saline).

On to `NC(=S)NN=C1CCC(=NNC(N)=S)CC1`, for which the T/C is 94 % of control (dose: 50.0 mg/kg/injection, schedule: Q01DX009 (ip), vehicle: other); 91 % of control (dose: 100.0 mg/kg/injection, schedule: Q01DX009 (ip), vehicle: other); 89 % of control (dose: 250.0 mg/kg/injection, schedule: Q01DX009 (ip), vehicle: other).
